According to patent publication US20240166645A1, “PYRIDOPYRIMIDINONE DERIVATIVE, PREPARATION METHOD THEREFOR, AND USE THEREOF” (Wuhan Humanwell Innovative Drug Research and Development …, priority 2021, published 2024):

What was measured:
CYP3A4 = CYP3A4 (Homo sapiens (Human), UniProt P08684); assay: Inhibition test on cytochrome P450 subtype CYP3A4; type: in vitro ADME; details: at 10 μM, compared with the control compound I
Experimental: The inhibitory potential of compounds on cytochrome P450 (CYP450) subtype CYP3A4 (two substrates of midazolam and testosterone) was detected. First, the compound to be tested was prepared into a 10 mM stock solution in DMSO solvent, and the CYP3A4 inhibitor ketoconazole was prepared as 10 mM, 2.5 mM and 2.5 mM stock solutions in DMSO solvent. The test compound and ketoconazole were diluted to 400-fold final concentration (compound: 10 μM, ketoconazole: 2.5 μM) with acetonitrile.
NADPH cofactor (10 mL of potassium phosphate buffer added with 66.7 mg NADPH) at 4-fold final concentration and substrates were prepared with potassium phosphate buffer (0.1 M, pH=7.4), with CYP3A4 substrate midazolam at a final concentration of […] and CYP3A4 substrate testosterone at a final concentration of 20 μM.
A human liver microsome solution at a concentration of 0.2 mg/mL was prepared with potassium phosphate buffer on ice. A solution of the compound to be tested and a control inhibitor (control compound) solution at 2-fold final concentration were prepared with the human liver microsome solution on ice. The test wells were added with […] of the test compound solution and the control inhibitor solution respectively, and then added with […] of the substrate for duplication. A 96-well assay plate and a NADPH solution were incubated at 37° C. for 5 min, and 15 μL of pre-heated 8 mM NADPH solution was added to the assay plate to initiate the reaction. A CYP3A4 assay plate was pre-incubated at 37° C. for 5 min. The plate was added with 120 μL of acetonitrile to terminate the reaction, and after quenching, the plate was shaken on a shaker (IKA, MTS 2/4) for 10 min (600 rpm/min), and then centrifuged for 15 min. After centrifugation, the supernatant was collected, and added with purified water in a ratio of 1:1 to perform LC-MS/MS detection. A ratio of a peak area of compound to a peak area of internal standard was obtained, and the peak area ratio of the compound was compared with the peak area ratio of the control inhibitor to calculate the inhibition rate.

[1] = system: Mia Paca-2 pancreatic cancer; assay: Mia Paca-2 pancreatic cancer in vivo efficacy test; set-up: species or system mice
Experimental: (§1) After one week of adaptive feeding of mice, Mia Paca-2 cells in a log phase were resuspended in serum-free DMEM, and then mixed with Matrigel in a ratio of 1:1.1×10^7 Mia Paca-2 cells were inoculated subcutaneously at the right flank at 100 μL per mouse, and tumor growth was observed regularly. When the tumor grew to an average volume of 150 to 200 mm^3, the mice were randomly divided into a model group and an administration group (single drug, in combination with trametinib) based on the tumor size and body weight. The tumor size and body weight were measured and recorded before and during the administration. After the treatment, the tumor size in the model group was compared with that in the administration group to determine the efficacy.

[2] = Pharmacokinetic test in mice; type: in vivo; details: mouse, plasma; male ICR mice, oral gavage, 10 mg/kg
Experimental: Male ICR mice (20 to 25 g) were used and fasted overnight. Three mice were taken and orally administered by gavage (10 mg/kg). Blood was collected before the administration, and at 15 min, 30 min, 1 h, 2 h, 4 h, 8 h and 24 h after the administration. 6,800 g of the blood samples were centrifuged at 2 to 8° C. for 6 min, and plasma was collected and stored at −80° C. The plasma at each time point was taken and added with an acetonitrile solution containing internal standard in 3 to 5 times the amount, vortexed and mixed for 1 min, and centrifuged at 13,000 rpm/min at 4° C. for 10 min. The supernatant was collected, added with water in 3 times the amount, and mixed. An appropriate amount of the mixture was taken for LC-MS/MS analysis. The main pharmacokinetic parameters were analyzed using WinNonlin 7.0 software with non-compartmental model.

[3] = Human liver microsome stability test; type: in vitro ADME; details: human, human liver microsomes
Experimental: The human liver microsome stability test was performed by incubating the compound and human liver microsomes in vitro. First, the compound to be tested was prepared into a 10 mM stock solution in DMSO solvent, and then the compound was diluted to 0.5 mM with acetonitrile. Human liver microsomes (Corning) were diluted with PBS into a microsome/buffer solution, and the solution was used to dilute 0.5 mM compound into a working solution, in which the concentration of the compound was 1.5 μM, and the concentration of human liver microsomes was 0.75 mg/mL. A deep-well plate was taken, 30 μL of the working solution was added per well, and then 15 μL of pre-heated 6 mM NADPH solution was added thereto to initiate a reaction, and the reaction was incubated at 37° C. At 0, 5, 15, 30 and 45 min of the incubation, 135 μL of acetonitrile was added to the corresponding wells to terminate the reaction. After the reaction was terminated with acetonitrile at the last time point of 45 min, the deep-well plate was vortexed and vibrated for 10 min (600 rpm/min), and then centrifuged for 15 min. After centrifugation, the supernatant was collected, and added with purified water in a ratio of 1:1 to perform LC-MS/MS detection. A ratio of a peak area of compound to a peak area of internal standard at each time point was obtained, and the peak area ratios of the compound at 5, 15, 30 and 45 min were compared with the peak area ratio at 0 min to calculate the remaining percentage of the compound at each time point. T1/2 was calculated by using GraphPad 5 software.

[4] = Plasma protein binding by equilibrium dialysis, mouse plasma; type: in vitro ADME; details: 37° C., read-out: Free fraction in plasma, Mouse (%)
Experimental: (§2) Plasma protein binding rate of compounds was detected by equilibrium dialysis (HTDialysis, HTD 96b). The compound was prepared into a […] stock solution with DMSO, and then 25-fold diluted with 0.05 M sodium phosphate buffer as a working solution. A blank 96-well plate was taken and preloaded with 380 μL of plasma per well. The plasma was then added with the working solution at 20 μL/well and mixed well, with the compound at a final concentration of 1 μM, containing 0.2% DMSO per well.
(§3) 100 μL of 0.05 M sodium phosphate buffer was added to the reception-side of each dialysis chamber (HTD 96b), and then 100 μL of plasma containing the compound was added to the supply-side. The dialysis chamber was covered with a plastic lid, shaken and incubated at 37° C. for 5 h.
(§4) After incubation, 25 μL of samples were taken from each of the supply-side and the reception-side of the dialysis chamber and placed in the blank 96-well plate. An equal volume of plasma was added to each of the supply-side samples while an equal volume of 0.05 M sodium phosphate buffer was added to each of the reception-side samples and mixed well. The 96-well plate was added with an acetonitrile solution containing internal standard at 200 μL per well, vortexed and shaken at 600 rpm for 10 min, and centrifuged at 5594 g for 15 min (Thermo Multifuge×3R). 50 μL of the supernatant was then transferred to a new 96-well plate, and the samples were mixed with 50 μL of ultra-pure water for LC-MS/MS analysis.
(§5) Plasma protein binding rate and free fraction were calculated using the following formulas: % binding rate=100×([supply-side concentration]5h−[reception-side concentration]5h)/[supply-side concentration]5h. % free fraction=100−% binding rate.

[5] = Plasma protein binding by equilibrium dialysis, human plasma; type: in vitro ADME; details: 37° C., read-out: Free fraction in plasma, Human (%)
Experimental: as §2, §3, §4, §5

KRAS G12C-SOS1 = KRAS G12C-SOS1 (Homo sapiens (Human), UniProt Q07889); assay: Inhibition test of compounds on KRAS G12C::SOS1 binding; details: GST-KRAS G12C, His-SOS1
Experimental: The compound to be tested was prepared into a 10 mM stock solution with DMSO, and the compound was serially diluted using 1× test buffer. 0.1 μL of the compound solution with different concentrations was transferred to a 384-well plate. […] 5 μL of His-SOS1 was added to the 384-well plate, centrifuged at 1000 rpm for 1 min, and incubated at room temperature for 15 min.
After incubation, 10 μL of a mixed solution of anti-6his-Tb monoclonal antibody (Cisbio, Cat. No. 61HI2TLA) and anti-GST-XL665 monoclonal antibody (Cisbio, Cat. No. 61GSTXLA) was added to the test well, centrifuged at 1000 rpm for 1 min, and incubated at room temperature for 1 h.
After incubation, the fluorescence signal ratios at 665 nm and 615 nm were read on a multifunctional microplate reader (Perkin Elmer, Envision 2104), and the IC50 values were calculated using Graphpad 5 software.

LOVO colorectal cancer = LOVO colorectal cancer in vivo efficacy test; set-up: species or system mice; details: 25 mg/kg BID
Experimental: as §1, with “LOVO” for “Mia Paca-2”, “F12K, 5×10^6 LOVO” for “DMEM, and then mixed with Matrigel in a ratio of 1:1.1×10^7 Mia Paca-2”, “group” for “group (single drug, in combination with trametinib)”

[6] = system: ERK phosphorylation level in DLD-1 cells; assay: Inhibition of ERK phosphorylation level in DLD-1 cells (intracellular western blot); type: cell-based; details: Homo sapiens
Experimental: Intracellular western blot quantitative analysis was used to detect the inhibitory level of compounds on ERK phosphorylation in DLD-1 cells.
DLD-1 cells (ATCC, CCL-221) were seeded in a T75 culture flask at 2.5×10^6 cells/flask and cultured in a RPMI 1640 medium containing 10% FBS for 2 days. On day 3, the cells were seeded on a 384-well plate, and cultured overnight at 37° C., 5% CO2. After overnight culture, the plate was added with serially diluted compounds (the final content of DMSO was 0.5%), the negative group was added with DMSO, and incubated in a 37° C., 5% CO2 incubator.
The cells were fixed, washed once with PBS, treated to disrupt membranes, and blocked at room temperature for 1 h. The blocking solution was removed. The plate was added with primary antibody (CST, Cat. No. #4370S), and incubated overnight at 4° C. The plate was washed 3 times with PBST (PBS solution added with 0.05% Tween-20) and soaked for 2 min each time. The plate was added with secondary antibody (LI-COR, Cat. No. 926-32211) and incubated at room temperature in the dark. The plate was washed 3 times with PBST and soaked for 2 min each time. The plate was centrifuged at 1000 rpm for 1 min, scanned on a two-color infrared laser imaging system (Odyssey® CLX) to read the signal.
Relative signal=800-channel signal values/700-channel signal values.
Relative expression level of ERK phosphorylation=(test compound−control compound I)/(DMSO group−control compound I)
(§6) IC50 values were calculated using Graphpad 5 software.

H358 cells = assay: Inhibition of 3D cell proliferation (3D CellTiter-Glo); type: cell-based; details: Homo sapiens, NCI-H358, 168 h, read-out: IC50 (nM), inhibition of 3D proliferation of H358 cells, 7 days
Experimental: H358 cells were seeded in a T75 culture flask and cultured in a RPMI 1640 medium containing 10% FBS for 2 days for subsequent experiments in which the cells would be cultured or seeded on a 384-well plate.
On day 1, the cells were seeded on the 384-well plate, with 40 μL of medium added per well and serially diluted compounds or DMSO added per well, and an additional well without seeded cells but with medium was set up as a blank control. After culture at 37° C., 5% CO2 for 7 days, the plate was added with 3D CellTiter-Glo reagent (Promega, Cat. No. G9683) on day 8, shaken at 320 rpm for 20 min, and left at room temperature for 2 h. Luminescence signals were read on a multifunctional microplate reader. Cell viability inhibition rate was calculated as:
Cell viability inhibition rate=(DMSO group−test compound)/(DMSO group−blank control group)×100%
as §6

KRAS G12C-SOS1, sequence (Q07889 whole entry, stated change not applied): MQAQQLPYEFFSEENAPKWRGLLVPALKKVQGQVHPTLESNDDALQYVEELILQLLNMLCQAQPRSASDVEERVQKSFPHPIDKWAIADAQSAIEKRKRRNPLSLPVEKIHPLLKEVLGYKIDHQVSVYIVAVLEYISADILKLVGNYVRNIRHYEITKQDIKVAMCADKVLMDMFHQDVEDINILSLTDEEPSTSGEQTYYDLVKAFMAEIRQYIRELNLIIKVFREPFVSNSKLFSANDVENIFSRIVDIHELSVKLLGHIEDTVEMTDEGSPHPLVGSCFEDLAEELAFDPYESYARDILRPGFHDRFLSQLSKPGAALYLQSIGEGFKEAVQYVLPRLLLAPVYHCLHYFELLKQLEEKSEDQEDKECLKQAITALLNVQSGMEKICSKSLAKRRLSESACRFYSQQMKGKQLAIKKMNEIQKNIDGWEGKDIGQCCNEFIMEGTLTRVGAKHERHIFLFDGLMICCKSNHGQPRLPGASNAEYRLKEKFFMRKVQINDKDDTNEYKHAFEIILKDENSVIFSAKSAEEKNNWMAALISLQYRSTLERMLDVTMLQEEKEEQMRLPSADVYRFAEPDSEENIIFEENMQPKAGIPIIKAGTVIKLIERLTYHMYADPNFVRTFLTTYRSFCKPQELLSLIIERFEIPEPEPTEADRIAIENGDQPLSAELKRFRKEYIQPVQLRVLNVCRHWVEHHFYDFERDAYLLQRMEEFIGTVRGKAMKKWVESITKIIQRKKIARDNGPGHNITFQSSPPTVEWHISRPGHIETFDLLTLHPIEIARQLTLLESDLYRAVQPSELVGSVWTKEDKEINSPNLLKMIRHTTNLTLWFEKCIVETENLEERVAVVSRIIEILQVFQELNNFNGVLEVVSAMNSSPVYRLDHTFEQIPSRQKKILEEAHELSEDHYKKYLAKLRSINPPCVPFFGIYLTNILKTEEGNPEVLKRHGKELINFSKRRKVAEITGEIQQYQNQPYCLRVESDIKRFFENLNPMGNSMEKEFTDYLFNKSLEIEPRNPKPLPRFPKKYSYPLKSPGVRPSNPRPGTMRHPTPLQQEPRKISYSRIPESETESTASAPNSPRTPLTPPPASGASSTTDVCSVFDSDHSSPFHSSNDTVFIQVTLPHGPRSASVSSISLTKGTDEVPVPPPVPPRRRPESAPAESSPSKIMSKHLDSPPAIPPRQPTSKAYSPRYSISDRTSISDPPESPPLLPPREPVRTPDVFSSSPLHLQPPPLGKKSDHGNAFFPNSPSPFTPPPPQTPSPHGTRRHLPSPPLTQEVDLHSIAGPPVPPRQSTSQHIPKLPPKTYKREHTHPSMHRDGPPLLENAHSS
CYP3A4, sequence (P08684 whole entry): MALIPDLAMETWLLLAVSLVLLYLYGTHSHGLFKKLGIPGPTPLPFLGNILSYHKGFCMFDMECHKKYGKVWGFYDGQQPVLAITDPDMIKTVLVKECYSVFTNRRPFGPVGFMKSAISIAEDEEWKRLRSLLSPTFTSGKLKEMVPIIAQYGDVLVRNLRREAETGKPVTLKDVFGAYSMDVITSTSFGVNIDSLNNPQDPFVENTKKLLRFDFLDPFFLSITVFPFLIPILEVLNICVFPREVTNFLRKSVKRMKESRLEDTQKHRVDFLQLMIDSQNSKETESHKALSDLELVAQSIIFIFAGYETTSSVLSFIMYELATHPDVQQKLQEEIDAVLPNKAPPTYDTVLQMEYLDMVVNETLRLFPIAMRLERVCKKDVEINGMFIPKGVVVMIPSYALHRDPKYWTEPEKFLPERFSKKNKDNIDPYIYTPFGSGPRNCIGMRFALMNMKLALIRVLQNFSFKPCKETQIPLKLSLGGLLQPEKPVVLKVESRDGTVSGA

SMILES | AUC(0-t) [2] [ng·h/mL] | Cmax [2] [ng/mL] | Tmax [2] [h] | half-life [2] [h] | fraction unbound at 5 h, 1 µM [4] | fraction unbound at 5 h, 1 µM [5] | IC50 (KRAS G12C-SOS1) [nM] | other results
Cc1nc(N[C@H](C)c2cccc(S(F)(F)(F)(F)F)c2)c2cn(C3(CF)CC3)c(=O)cc2n1 [Compound I-3, (R)-6-(1-(fluoromethyl)cyclopropyl)-2-methyl-4-((1-(3-(pentafluorosulfanyl)phenyl)ethyl)amino)pyrido[4,3-d]pyrimidin-7(6H)-one] |  |  |  |  |  |  |  | inhibitory effect on CYP3A4 enzymes (in words) (CYP3A4): more significant inhibitory effect
CC(=O)Nc1cccc(-n2c(=O)n(C3CC3)c(=O)c3c(Nc4ccc(I)cc4F)n(C)c(=O)c(C)c32)c1 [Trametinib, reference compound] |  |  |  |  |  |  |  | Tumor weight inhibition rate (relative to the vehicle group) ([1]; Mia Paca-2, 0.125 mg/kg BID): 80%
Cc1nc(N[C@H](C)c2cccc(C(F)(F)F)c2C)c2cn(C3(CF)CC3)c(=O)cc2n1 [Control compound I, reference compound] | 365 | 176 | 0.25 | 1.35 | 0.005 | 0.009 |  | half-life at 1 µM [3]: 1.07 h
Cc1nc(N[C@H](C)c2cccc(S(=O)(=O)C(F)F)c2F)c2cn(C3(CF)CC3)c(=O)cc2n1 [Compound I-5, (R)-4-((1-(3-((difluoromethyl)sulfonyl)-2-fluorophenyl)ethyl)amino)-6-(1-(fluoromethyl)cyclopropyl)-2-methylpyrido[4,3-d]pyrimidin-7(6H)-one] |  |  |  |  | 0.114 | 0.077 | 10 | 
Cc1nc(N[C@H](C)c2cccc(S(F)(F)(F)(F)F)c2)c2cn(C3(C(F)F)CC3)c(=O)cc2n1 [Compound I-23, (R)-6-(1-(difluoromethyl)cyclopropyl)-2-methyl-4-((1-(3-(pentafluorosulfanyl)phenyl)ethyl)amino)pyrido[4,3-d]pyrimidin-7(6H)-one] | 44100 | 4240 | 2 | 2.33 |  |  | 4.9 | Average tumor weight at the end of the treatment (LOVO colorectal cancer): 0.65 g; Tumor weight inhibition rate (relative to the vehicle group) (LOVO colorectal cancer): 53%; IC50 [6]: 159 nM; Average tumor weight at the end of the treatment ([1]; Mia Paca-2, 25 mg/kg BID): 0.45 g; Tumor weight inhibition rate (relative to the vehicle group) ([1]; Mia Paca-2, 25 mg/kg BID): 61%; Average tumor weight at the end of the treatment ([1]; Mia Paca-2, 50 mg/kg BID): 0.38 g; Tumor weight inhibition rate (relative to the vehicle group) ([1]; Mia Paca-2, 50 mg/kg BID): 67%; IC50 (H358 cells): 12 nM
